Results reported in PubChem BioAssay AID1963862 (Molecular Pharmacology Branch, DTP, NCI, 2024).

Tested on: KRAS patient-derived spheroids with HUVEC/MSC, viability
Experiment: Anticancer human tumor 941728-121-R-J1-PDC patient-derived lung adenocarcinoma cell line growth inhibition [KRAS2]
Conditions: for IC50: curve of first compound; for viability, T/C: stronger effect = lower value
Procedure, shortened: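 Combination screen of spheroid viability in tumor-cell co-cultures with endothelial (HUVEC) and mesenchymal stem cell stroma. Each agent was tested in half-log dilutions, topping at clinical Cmax or at 10 microM without a known Cmax.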

[1] = second compound 0.1 µM, first compound 0.0316 µM
[2] = second compound 0.1 µM, first compound 0.1 µM
[3] = second compound 0.1 µM, first compound 0.316 µM
[4] = second compound 0.1 µM, first compound 1 µM
[5] = second compound 0.1 µM, first compound 3.16 µM
[6] = second compound 0.316 µM, first compound 0.0316 µM
[7] = second compound 0.316 µM, first compound 0.1 µM
[8] = second compound 0.316 µM, first compound 0.316 µM
[9] = second compound 0.316 µM, first compound 1 µM
[10] = second compound 0.316 µM, first compound 3.16 µM
[11] = second compound 1 µM, first compound 0.0316 µM
[12] = second compound 1 µM, first compound 0.1 µM
[13] = second compound 1 µM, first compound 0.316 µM
[14] = second compound 1 µM, first compound 1 µM
[15] = second compound 1 µM, first compound 3.16 µM
[16] = second compound 3.16 µM, first compound 0.0316 µM
[17] = second compound 3.16 µM, first compound 0.1 µM
[18] = second compound 3.16 µM, first compound 0.316 µM
[19] = second compound 3.16 µM, first compound 1 µM
[20] = second compound 3.16 µM, first compound 3.16 µM
[21] = second compound 10 µM, first compound 0.0316 µM
[22] = second compound 10 µM, first compound 0.1 µM
[23] = second compound 10 µM, first compound 0.316 µM
[24] = second compound 10 µM, first compound 1 µM
[25] = second compound 10 µM, first compound 3.16 µM
[26] = second compound 0.1 µM, first compound 10 µM
[27] = second compound 0.316 µM, first compound 10 µM
[28] = second compound 1 µM, first compound 10 µM
[29] = second compound 3.16 µM, first compound 10 µM
[30] = second compound 10 µM, first compound 10 µM
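Further: spheroids exposed to agents for seven days before readout.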

SMILES	IC50 (second compound 0.1 µM) [nM]	IC50 (second compound 0.316 µM) [nM]	IC50 (second compound 1 µM) [nM]	IC50 (second compound 3.16 µM) [nM]	IC50 (second compound 10 µM) [nM]	viability, T/C [1] [%]	viability, T/C [2] [%]	viability, T/C [3] [%]	viability, T/C [4] [%]	viability, T/C [5] [%]	viability, T/C [6] [%]	viability, T/C [7] [%]	viability, T/C [8] [%]	viability, T/C [9] [%]	viability, T/C [10] [%]	viability, T/C [11] [%]	viability, T/C [12] [%]	viability, T/C [13] [%]	viability, T/C [14] [%]	viability, T/C [15] [%]	other results
CC1COCCN1c1cc(-c2ccnn2C)c2ccnc(-c3ccn[nH]3)c2n1 (stereo not given) + COc1cc2nc(C)nc(NC(C)c3cc(N)cc(C(F)(F)F)c3)c2cc1OC1CCOC1	25.8	30.7	14.5	< 10	< 10	49.5	39.9	33.9	26.8	20.3	49.5	36.8	27.2	21.9	23.6	42.7	32.9	27.9	22.5	18.6	viability, T/C (second compound 0.1 µM, first compound 0.01 µM): 56%; viability, T/C (second compound 0.316 µM, first compound 0.01 µM): 58.2%; viability, T/C (second compound 1 µM, first compound 0.01 µM): 53.6%; viability, T/C (second compound 3.16 µM, first compound 0.01 µM): 36.3%; viability, T/C [16]: 32%; viability, T/C [17]: 25.4%; viability, T/C [18]: 18.2%; viability, T/C [19]: 8.31%; viability, T/C [20]: 15.9%; viability, T/C (second compound 10 µM, first compound 0.01 µM): 17.4%; viability, T/C [21]: 21.6%; viability, T/C [22]: 21.9%; viability, T/C [23]: 11.4%; viability, T/C [24]: 9.32%; viability, T/C [25]: 6.09%
CC1OCC2(CCN(c3cnc(Sc4ccnc(N)c4Cl)c(N)n3)CC2)C1N (stereo not given) + COc1cc2nc(C)nc(NC(C)c3cc(N)cc(C(F)(F)F)c3)c2cc1OC1CCOC1	< 31.6	< 31.6	< 31.6	< 31.6	< 31.6	49.4	43.1	38.4	36.1	39	47.2	41.4	34.1	35.7	37	48	43.8	35	36.2	32.3	viability, T/C [26]: 34.5%; viability, T/C [27]: 39.7%; viability, T/C [28]: 29.9%; viability, T/C [16]: 43.6%; viability, T/C [17]: 39%; viability, T/C [18]: 35.3%; viability, T/C [19]: 33.4%; viability, T/C [20]: 29.5%; viability, T/C [29]: 26.6%; viability, T/C [21]: 30%; viability, T/C [22]: 21.2%; viability, T/C [23]: 13.1%; viability, T/C [24]: 13.3%; viability, T/C [25]: 11.6%; viability, T/C [30]: 5.88%
CCNC(=O)CC1N=C(c2ccc(Cl)cc2)c2cc(OC)ccc2-n2c(C)nnc21 (stereo not given) + COc1cc2nc(C)nc(NC(C)c3cc(N)cc(C(F)(F)F)c3)c2cc1OC1CCOC1	36.2	< 31.6	< 31.6	< 31.6	< 31.6	49.5	48.2	30.6	16.1	11.1	46.2	42.6	34.4	12.6	9.51	45.1	40.7	29.2	8.81	7.25	viability, T/C [26]: 9.43%; viability, T/C [27]: 9.32%; viability, T/C [28]: 6.02%; viability, T/C [16]: 38.3%; viability, T/C [17]: 33%; viability, T/C [18]: 23.5%; viability, T/C [19]: 8.14%; viability, T/C [20]: 7.37%; viability, T/C [29]: 8.71%; viability, T/C [21]: 20.3%; viability, T/C [22]: 13.9%; viability, T/C [23]: 14.2%; viability, T/C [24]: 3.3%; viability, T/C [25]: 2.65%; viability, T/C [30]: 1.91%
Cn1nccc1Nc1nccc(-c2cc3c(s2)C(C)(C)N(CCN2CCOCC2)C3=O)n1 + COc1cc2nc(C)nc(NC(C)c3cc(N)cc(C(F)(F)F)c3)c2cc1OC1CCOC1	116	145	58.6	< 31.6	< 31.6	60.1	52.7	43.7	39.5	39.2	64.1	55.3	38.9	38.6	39.1	55.9	44.3	41.1	37.5	38.4	viability, T/C [26]: 37.8%; viability, T/C [27]: 33.9%; viability, T/C [28]: 35.1%; viability, T/C [16]: 46.5%; viability, T/C [17]: 46.7%; viability, T/C [18]: 40.5%; viability, T/C [19]: 40.6%; viability, T/C [20]: 36.3%; viability, T/C [29]: 31.5%; viability, T/C [21]: 30.7%; viability, T/C [22]: 30.2%; viability, T/C [23]: 22.4%; viability, T/C [24]: 20.4%; viability, T/C [25]: 15%; viability, T/C [30]: 11.2%
